Entries after “also recorded” stand apart in the source; their conditions may differ. Where a name gives a salt, the structure may show the parent alone. Read-outs that look alike come from different tables or passages of the source. Where a SMILES comes first, the peptide text is derived from it. Bridges are numbered along the chain shown (N, C = ends). [ ]: non-standard residue; d: D form. Orn = NCCC[C@H](N)C(=O)O; Mpa = O=C(O)CCS
What was measured:
LPS-induced parturition = assay type: in vivo; details: LPS-treated mice
Experimental: (§1) Tocolytic effects were assessed by measuring the time from induction to delivery of the first pup for each mouse in the treatment and control cohorts, the time from time from induction to completion of delivery among all mice in each cohort, and viability of offspring among mice in each cohort. The inducers of preterm parturition used in this study were RU486 (also referred to as mifepristone), a steroidal antiprogestin that promotes cervical dilatation and provokes enhanced uterine contractility and sensitivity to prostaglandins, and lipopolysaccharide (LPS), a mediator of inflammation.
(§2) To induce labor at an early gestational age, a single dose of RU486 was administered to each mouse subcutaneously at 2.5 mg/kg (t=0). Mice treated with LPS received a single intraperitoneal injection of LPS at 2 mg/kg (t=0). Atosiban was administered to CD-1 mice by subcutaneous injection at 300 mg/kg at two distinct sites. These injections were performed at 5 hours (t=5) and 29 hours (t=29) following treatment with the inducing agent RU486 or LPS. […] Compound III was administered to CD-1 mice orally at either 10 mg/kg, 30 mg/kg, or 100 mg/kg at 5 hours (t=5), 19 hours (t=19), 29 hours (t=29), and 43 hours (t=43) following treatment with the inducing agent RU486 or LPS. […] The viability of pups delivered in each cohort was assessed by galenic hydrostatic pulmonary docimasy.

[1] = test system: RU486-induced parturition; assay: RU486-induced preterm parturition in CD-1 mice
Experimental: as §1, §2

[2] = Aqueous solubility of compound I salts (FIG. 8); assay type: physicochemical; details: water
[3] = Moisture sorption/desorption and relative humidity stability of compound I salts; assay type: physicochemical; details: for Hygroscopicity: moisture balance data, hydrochloride
Experimental: Moisture sorption/desorption (MB) data were collected on a VTI SGA-100 Vapor Sorption Analyzer. Sorption and desorption data were collected over a range of 5% to 95% relative humidity (RH) at 10% RH intervals under a nitrogen purge. Samples were not dried prior to analysis. Equilibrium criteria used for analysis were less than 0.0100% weight change in 5 minutes, with a maximum equilibration time of 3 hours if the weight criterion was not met. Data were not corrected for the initial moisture content of the samples. NaCl and PVP were used as calibration standards.

[4] = nifedipine 5 mg/kg oral, compound III 10 mg/kg oral, alone or combined

SMILES: CCOc1ccc(C[C@H]2NC(=O)CCSSC[C@@H](C(=O)N3CCC[C@H]3C(=O)N[C@@H](CCCN)C(=O)NCC(N)=O)NC(=O)[C@H](CC(N)=O)NC(=O)[C@H]([C@@H](C)O)NC(=O)[C@H]([C@@H](C)CC)NC2=O)cc1 [atosiban, reference compound] ([Mpa][dY](Et)ITNCP[Orn]G-NH2; disulfide 1-6)
- Effect on time to delivery (LPS-induced parturition): increase in time to delivery
- Time to delivery (LPS-induced parturition; atosiban 300 mg/kg s.c., compound III 100 mg/kg oral, alone or combined): 28.41 ± 2.99 h

SMILES: CC(C)[C@H](N)C(=O)OCC[C@H](NC(=O)[C@@H]1SCCN1S(=O)(=O)c1ccc(-c2ccccc2)cc1)c1ccc(F)cc1 [Compound III, (3S)-3-({[(2S)-3-(biphenyl-4-ylsulfonyl)-1,3-thiazolidin-2-yl]carbonyl}-amino)-3-(4-fluorophenyl)propyl L-valinate hydrochloride]
- Effect on time to delivery ([1]; RU486-treated mice): increase in time to delivery compared to vehicle
- Time to delivery ([1]; RU486-treated mice, nifedipine 5 mg/kg oral, compound III 100 mg/kg oral, alone or combined): 23.70 ± 0.60 h
- Effect on fractional viability of offspring (LPS-induced parturition): dose-dependent increase in the fractional viability of offspring
- Fractional viability of offspring (LPS-induced parturition; compound III 100 mg/kg oral): 69.41%±15.76%
- Fractional viability of offspring (LPS-induced parturition; [4]): 57.90%±14.89%
- Time to delivery (LPS-induced parturition; [4]): 23.98 ± 0.66 h
- solubility [2]: < 1 mg/mL
- Stability at elevated relative humidity [3]: extended stability at elevated relative humidity
- Weight loss upon desorption [3]: approximately 0.7%
- Deliquescence at approximately 95% RH ([3]; 2 days, approximately 95% RH): did not deliquesce
- Weight gain on sorption ([3]; from 5 to 95% relative humidity): Approximately 0.9%
- Hygroscopicity [3]: low hygroscopicity
- Hygroscopicity ([3]; listed as chloride salt): non-hygroscopic
- Hygroscopicity ([3]; listed as hydrochloride salt): low hygroscopicity; also recorded: non-hygroscopic

SMILES: CC#C[C@]1(O)CC[C@H]2[C@@H]3CCC4=CC(=O)CCC4=C3[C@@H](c3ccc(N(C)C)cc3)C[C@@]21C [RU486, mifepristone]
- Mean delivery time following induction ([1]; RU486 2.5 mg/kg s.c. at gestational age 17 days): 21 ± 1.00 h
- Mice excluded due to death or sacrifice during the study ([1]; female, CD-1, mouse, in vivo, 2.5 mg/kg): 3%
- Pups delivered alive ([1]; inducer alone): 96%

SMILES: COC(=O)C1=C(C)NC(C)=C(C(=O)OC)C1c1ccccc1[N+](=O)[O-] [nifedipine, reference compound]
- Fractional viability of offspring (LPS-induced parturition; [4]): 90.39%±5.34%
